Reference: paper PMC5253651 (Nature Communications, 2017)
Read-outs that look alike come from different tables or passages of the source. Marks after values point to notes of the source that are not given here.

Tests used:
human FPPS [1] = target: T1, human FPPS (Homo sapiens, UniProt P14324); experiment: Isothermal titration calorimetry (ITC) binding assay; design: His6 (N); made in house; host or cells: Escherichia coli BL21 (DE3)
T1 sequence (P14324 1-353 isoform P14324-2): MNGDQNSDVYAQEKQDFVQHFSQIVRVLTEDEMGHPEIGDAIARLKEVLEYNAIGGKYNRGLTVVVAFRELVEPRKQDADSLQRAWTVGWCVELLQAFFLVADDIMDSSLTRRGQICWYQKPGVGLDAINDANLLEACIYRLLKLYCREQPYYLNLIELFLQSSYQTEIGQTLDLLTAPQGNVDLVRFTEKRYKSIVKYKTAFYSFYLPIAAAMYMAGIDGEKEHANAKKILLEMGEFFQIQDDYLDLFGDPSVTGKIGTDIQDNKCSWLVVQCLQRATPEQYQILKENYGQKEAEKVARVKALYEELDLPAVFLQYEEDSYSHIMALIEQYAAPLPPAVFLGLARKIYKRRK
Experimental: Ligand (DMAPP, GPP and FPP) and MgCl2 solutions were prepared in the used dialysate. Each titration experiment consisted of a first 1 μl injection followed by 18 2 μl injections of a ligand solution into the 204.1 μl calorimetric cell loaded with the enzyme solution. […] When added, the concentration of MgCl2 was 5 mM. Heats of dilution were measured by injecting the ligands into the buffer alone and subtracted from the corresponding titration data. The data were fitted to the single-site-binding model implemented in the Origin software package provided with the ITC instrument.

human FPPS [2] = target: T1, human FPPS
Experimental: Reaction calorimetry was also carried out at 30 °C with a MicroCal iTC200 system. The enzyme and substrates were prepared in the reaction buffer (50 mM HEPES (pH 7.5), 150 mM NaCl, 2 mM MgCl2, 2 mM β-mercaptoethanol and 5% glycerol) in the same way described for the binding experiments. […] When added, FPP was preincubated together with the enzyme. The concentration of the enzyme in the cell was 400–500 nM, and those of the substrates in the syringe were 0.4–4 mM. Heats of dilution were measured and subtracted from the actual reaction data. […] Briefly, The molar reaction enthalpy (ΔH) was determined first based on the relationship:
in which Q is the total heat associated with producing n moles of product, [S0] is the starting concentration of the limiting substrate and V is the volume of the calorimetric cell. Q was calculated by integrating the thermal power (dQ/dt) measured over the complete course of reaction, whereas [S0] and V were known. Once ΔH was determined, the substrate concentration ([S]) could be determined as a function of time as described in the equation:
The rate of reaction could be calculated from dQ/dt for any given time point:
For kinetic measurements, the temporal experimental heat flow must be monitored accurately. […] Km and Vmax values were determined by fitting the rate data to the following equation[29]:

FPPS = conditions: cited from earlier work
N-BP-bound FPPS complex = conditions: binding of IPP to an N-BP-bound FPPS complex; cited from earlier work
[3] = ITC, 30 °C, titrated in absence of Mg2+, triplicate, read-out: Kd
[4] = ITC, 30 °C, titrated in presence of Mg2+ (5 mM MgCl2), triplicate, read-out: Kd
[5] = ITC, 30 °C, titrated in absence of Mg2+, triplicate
[6] = ITC, 30 °C, titrated in presence of Mg2+ (5 mM MgCl2), triplicate

Compound | Kd (human FPPS [1]; [3]) [µM] | Kd (human FPPS [1]; [4]) [µM] | TΔS (human FPPS [1]; [5]) [kJ/mol] | n (molar binding ratio) (human FPPS [1]; [5]) | ΔH (human FPPS [1]; [5]) [kJ/mol] | TΔS (human FPPS [1]; [6]) [kJ/mol] | n (molar binding ratio) (human FPPS [1]; [6]) | ΔH (human FPPS [1]; [6]) [kJ/mol] | other results
CC(C)=CCC/C(C)=C/CC/C(C)=C/CO[P@@](=O)(O)OP(=O)(O)O (stereo in doubt) [FPP, farnesyl pyrophosphate] | 5.3 ± 0.4 | 6 ± 0.6 |  |  |  |  |  |  | Kd (human FPPS [1]; summary of ITC values in absence and presence of Mg2+, read-out: Kd for binding to the allosteric pocket): 5 to 6 µM
CC(C)=CCC/C(C)=C/COP(=O)(O)OP(=O)(O)O [GPP, geranyl pyrophosphate] | 7.6 ± 0.9 | 2.1 ± 0.3 | 7.53 | 0.80±0.03 | -22.2 ± 0.84 | 0.84 | 0.79±0.01 | -32.2 ± 0.84 | Km (FPPS; previously reported Km value for GPP): 2.07 µM
C=C(C)CCO[P@@](=O)(O)OP(=O)(O)O [IPP, isopentenyl pyrophosphate] |  |  |  |  |  |  |  |  | effect on enzyme activity (substrate inhibition) (human FPPS [2]; experiment carried out in excess of IPP): significantly reduced enzyme activity; Kd (N-BP-bound FPPS complex): 0.9 µM; Km (FPPS; literature value for IPP): 1.8 µM
O=P(O)(O)OP(=O)(O)O [PPi] |  |  |  |  |  |  |  |  | binding affinity by ITC (result in words) (human FPPS [1]; both in the presence and absence of Mg2+): did not demonstrate an apparent binding event

More lines, main results first:

Kd (human FPPS [1]; [3]) [µM] | Kd (human FPPS [1]; [4]) [µM] | TΔS (human FPPS [1]; [5]) [kJ/mol] | n (molar binding ratio) (human FPPS [1]; [5]) | ΔH (human FPPS [1]; [5]) [kJ/mol] | TΔS (human FPPS [1]; [6]) [kJ/mol] | n (molar binding ratio) (human FPPS [1]; [6]) | ΔH (human FPPS [1]; [6]) [kJ/mol] | Compound | other results
 |  | 6.69 | 1 ^† | -18.8 ± 0.84 | 8.79 | 0.87±0.01 | -24.3 ± 0.42 | CC(C)=CCOP(=O)(O)OP(=O)(O)O [DMAPP, dimethylallyl pyrophosphate] | Kd (human FPPS [1]; Kd, ITC, 30 °C, titrated in absence of Mg2+, triplicate): 43.7 ± 4.3 µM; Kd (human FPPS [1]; Kd, ITC, 30 °C, titrated in presence of Mg2+ (5 mM MgCl2), triplicate): 2.2 ± 0.2 µM
 |  | 7.53 | 1.12±0.01 | -23 ± 0.42 | 7.11 | 1.17±0.02 | -23.4 ± 0.42 | CC(C)=CCC/C(C)=C/CC/C(C)=C/COP(=O)(O)OP(=O)(O)O [FPP, farnesyl pyrophosphate] | effect on FPPS reaction rate curve (product inhibition) (human FPPS [2]; same excess experiment, reaction with an initial amount of FPP preincubated with enzyme): depressed rate curve
